ChEMBL document CHEMBL1177780, “Montmorillonite K-10 catalyzed cyclization of N-ethoxycarbonyl-N'-arylguanidines: access to pyrimido[4,5-c]carbazole and pyrimido[5,4-b]indole derivatives” (Bioorg Med Chem Lett, 2010)
The source made the active and inactive calls. The rule behind the calls is not given here.

How the values were obtained:
HL-60 = assay: Cytotoxicity against human topoisomerase 2-sensitive HL60 cells after 72 hrs by MTT assay; format: functional, cell-based; settings: HL-60, 72 h
Nucleic Acid [1] = assay: Binding affinity to [poly(dAdT)]2 DNA assessed as change in melting temperature at 20 uM; format: nucleic-acid assay
[2] = Cytotoxicity against human HL60/MX2 cells after 72 hrs by MTT assay; format: functional, cell-based; settings: HL60/MX2, 72 h
Calf thymus DNA [3] = assay: Binding affinity to calf thymus DNA assessed as change in melting temperature at 10 uM; format: nucleic-acid assay; settings: Bos taurus
Nucleic Acid [4] = assay: Binding affinity to [poly(dAdT)]2 DNA assessed as change in melting temperature at 10 uM; format: nucleic-acid assay
Calf thymus DNA [5] = assay: Binding affinity to calf thymus DNA assessed as change in melting temperature at 20 uM; format: nucleic-acid assay; settings: Bos taurus
[6] = molecular target: DNA topoisomerase 2-alpha (Homo sapiens) (UniProt P11388); assay: Inhibition of human topoisomerase 2-mediated relaxation of pUC18 DNA assessed as formation of nicked DNA at 50 uM using ethidium bromide staining by agarose gel electrophoresis
Sequence of DNA topoisomerase 2-alpha (Homo sapiens) (P11388 whole entry): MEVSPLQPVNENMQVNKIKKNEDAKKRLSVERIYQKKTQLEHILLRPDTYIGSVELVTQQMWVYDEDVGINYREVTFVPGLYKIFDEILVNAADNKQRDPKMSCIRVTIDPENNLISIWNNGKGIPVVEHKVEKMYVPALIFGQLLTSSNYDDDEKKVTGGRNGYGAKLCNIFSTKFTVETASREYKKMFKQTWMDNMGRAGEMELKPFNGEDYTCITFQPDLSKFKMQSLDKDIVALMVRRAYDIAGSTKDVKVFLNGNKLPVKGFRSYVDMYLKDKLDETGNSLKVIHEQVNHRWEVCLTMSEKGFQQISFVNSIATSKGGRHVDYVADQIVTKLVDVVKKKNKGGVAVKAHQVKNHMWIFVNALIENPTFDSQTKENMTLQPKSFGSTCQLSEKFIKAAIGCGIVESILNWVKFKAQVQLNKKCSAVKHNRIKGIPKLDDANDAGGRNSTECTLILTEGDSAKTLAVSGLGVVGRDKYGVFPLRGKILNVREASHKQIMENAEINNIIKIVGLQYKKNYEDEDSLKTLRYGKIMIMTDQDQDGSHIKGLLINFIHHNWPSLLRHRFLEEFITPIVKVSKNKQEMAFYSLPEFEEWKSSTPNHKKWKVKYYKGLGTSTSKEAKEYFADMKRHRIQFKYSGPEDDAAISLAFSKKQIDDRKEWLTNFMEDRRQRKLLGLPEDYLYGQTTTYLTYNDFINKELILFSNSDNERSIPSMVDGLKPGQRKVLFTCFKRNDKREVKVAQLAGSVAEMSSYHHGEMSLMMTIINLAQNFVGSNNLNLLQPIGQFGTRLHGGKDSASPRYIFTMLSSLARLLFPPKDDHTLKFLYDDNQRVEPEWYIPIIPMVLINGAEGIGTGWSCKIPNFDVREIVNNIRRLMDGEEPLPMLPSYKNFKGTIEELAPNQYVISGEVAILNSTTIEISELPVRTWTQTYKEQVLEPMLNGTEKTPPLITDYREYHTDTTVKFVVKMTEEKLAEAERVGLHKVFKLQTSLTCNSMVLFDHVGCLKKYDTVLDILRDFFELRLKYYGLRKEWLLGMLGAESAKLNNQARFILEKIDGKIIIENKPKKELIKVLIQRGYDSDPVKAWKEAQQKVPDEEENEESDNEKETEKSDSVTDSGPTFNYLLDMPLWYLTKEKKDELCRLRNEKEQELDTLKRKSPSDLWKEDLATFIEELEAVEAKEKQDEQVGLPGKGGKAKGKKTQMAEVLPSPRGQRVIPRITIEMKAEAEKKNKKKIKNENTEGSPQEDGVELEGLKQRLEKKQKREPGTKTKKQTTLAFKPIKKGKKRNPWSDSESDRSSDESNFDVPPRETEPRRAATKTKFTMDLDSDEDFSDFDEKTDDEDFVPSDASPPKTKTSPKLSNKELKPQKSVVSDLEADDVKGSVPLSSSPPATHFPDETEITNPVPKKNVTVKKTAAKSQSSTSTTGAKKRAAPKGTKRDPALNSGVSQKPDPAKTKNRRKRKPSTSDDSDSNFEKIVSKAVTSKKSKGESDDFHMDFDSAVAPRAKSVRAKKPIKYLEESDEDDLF

[7] = molecular target: T1, DNA topoisomerase 1 (Homo sapiens) (UniProt P11387); assay: Inhibition of human topoisomerase 1-mediated relaxation of pUC18 DNA assessed as formation of nicked DNA up to 50 uM using ethidium bromide staining by agarose gel electrophoresis
T1 sequence (whole entry): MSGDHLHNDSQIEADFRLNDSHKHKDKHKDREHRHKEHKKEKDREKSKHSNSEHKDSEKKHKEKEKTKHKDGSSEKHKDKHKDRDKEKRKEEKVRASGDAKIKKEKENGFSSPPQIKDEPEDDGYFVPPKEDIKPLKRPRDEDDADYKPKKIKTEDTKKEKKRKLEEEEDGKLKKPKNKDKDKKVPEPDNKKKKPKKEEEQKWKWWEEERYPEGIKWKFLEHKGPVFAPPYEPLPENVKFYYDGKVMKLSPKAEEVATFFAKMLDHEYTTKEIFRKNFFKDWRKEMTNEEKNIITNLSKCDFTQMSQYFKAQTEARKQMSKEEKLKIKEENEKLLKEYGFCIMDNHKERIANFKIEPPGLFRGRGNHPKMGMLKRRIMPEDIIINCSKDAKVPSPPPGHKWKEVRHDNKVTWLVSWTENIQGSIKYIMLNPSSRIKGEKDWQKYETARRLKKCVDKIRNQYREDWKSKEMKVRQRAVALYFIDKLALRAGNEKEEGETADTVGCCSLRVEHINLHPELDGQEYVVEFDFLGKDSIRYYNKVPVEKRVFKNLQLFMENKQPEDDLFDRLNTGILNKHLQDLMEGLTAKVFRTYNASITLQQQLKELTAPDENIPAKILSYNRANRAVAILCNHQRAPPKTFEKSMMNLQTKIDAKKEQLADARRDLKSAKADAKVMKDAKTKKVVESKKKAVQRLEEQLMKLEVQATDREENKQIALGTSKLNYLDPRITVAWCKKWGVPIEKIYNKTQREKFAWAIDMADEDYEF

ΔTm (Nucleic Acid [1]) | ΔTm (Calf thymus DNA [3]) | ΔTm (Nucleic Acid [4]) | ΔTm (Calf thymus DNA [5]) | inhibition [6] | inhibition [7] | SMILES | IC50 (HL-60) | IC50 [2]
0 °C | 0 °C | 0 °C | 0 °C | – | – | COc1cc([C@@H]2c3cc4c(cc3[C@@H](O[C@@H]3O[C@@H]5CO[C@@H](C)O[C@H]5[C@H](O)[C@H]3O)[C@H]3COC(=O)[C@H]23)OCO4)cc(OC)c1O [ETOPOSIDE] | 1.3 µM | 11.9 µM
3 °C | 0.4 °C | 4.4 °C | 0 °C | 10% | inactive | CN(C)CCNc1nc2c([nH]c3ccccc32)c(=O)[nH]1 | > 100 µM | > 100 µM
15.4 °C | 3 °C | 15.9 °C | 2.3 °C | – | inactive | CCn1c2ccccc2c2c3c(=O)[nH]c(NCCN(C)C)nc3ccc21 | 17 µM | 17 µM
